Where “and” joins values, the source holds several entries; their conditions need not be identical. Identical values can stand only once. Inconclusive results and toxic doses are left out. No stated cut-off is given here; in the data, active means T/C of 150% or more; inactive means T/C below 125%.
Test system: L1210 leukemia ip in BDF1 mice, survival T/C
Assay: NCI In Vivo Anticancer Drug Screen. Data for tumor model L1210 Leukemia (intraperitoneal) in B6D2F1 (BDF1) mice
Conditions: endpoint: mean survival time, higher = longer survival
Summary of the method: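 Mice bearing the transplanted tumor received compound or vehicle. Survival of the treated group was divided by that of the vehicle-treated control group to give the ratio.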

[1] = dose: 100.0 mg/kg/injection, schedule: Q01DX009 (ip), vehicle: Klucel (hydroxypropylcellulose) (HPC)
[2] = dose: 100.0 mg/kg/injection, schedule: Q04DX003 (ip), vehicle: Klucel (hydroxypropylcellulose) (HPC)
[3] = dose: 200.0 mg/kg/injection, schedule: Q01DX009 (ip), vehicle: Klucel (hydroxypropylcellulose) (HPC)
[4] = dose: 200.0 mg/kg/injection, schedule: Q04DX003 (ip), vehicle: Klucel (hydroxypropylcellulose) (HPC)
[5] = dose: 400.0 mg/kg/injection, schedule: Q01DX009 (ip), vehicle: Klucel (hydroxypropylcellulose) (HPC)
[6] = dose: 400.0 mg/kg/injection, schedule: Q04DX003 (ip), vehicle: Klucel (hydroxypropylcellulose) (HPC)
[7] = dose: 100.0 mg/kg/injection, schedule: Q04DX002 (ip), vehicle: Klucel (hydroxypropylcellulose) (HPC)
[8] = dose: 200.0 mg/kg/injection, schedule: Q04DX002 (ip), vehicle: Klucel (hydroxypropylcellulose) (HPC)
[9] = dose: 100.0 mg/kg/injection, schedule: Q04DX003 (ip), vehicle: saline with Tween-80
[10] = dose: 400.0 mg/kg/injection, schedule: Q04DX002 (ip), vehicle: Klucel (hydroxypropylcellulose) (HPC)
[11] = dose: 100.0 mg/kg/injection, schedule: Q01DX001 (ip), vehicle: saline
[12] = dose: 200.0 mg/kg/injection, schedule: Q01DX001 (ip), vehicle: saline
[13] = dose: 100.0 mg/kg/injection, schedule: Q04DX003 (ip), vehicle: saline
[14] = dose: 200.0 mg/kg/injection, schedule: Q04DX003 (ip), vehicle: saline
[15] = dose: 100.0 mg/kg/injection, schedule: Q01DX009 (ip), vehicle: saline with Tween-80
[16] = dose: 200.0 mg/kg/injection, schedule: Q01DX009 (ip), vehicle: saline with Tween-80
[17] = dose: 400.0 mg/kg/injection, schedule: Q01DX009 (ip), vehicle: saline with Tween-80
[18] = dose: 100.0 mg/kg/injection, schedule: Q04DX002 (ip), vehicle: saline with Tween-80
[19] = dose: 200.0 mg/kg/injection, schedule: Q04DX002 (ip), vehicle: saline with Tween-80
[20] = dose: 400.0 mg/kg/injection, schedule: Q04DX002 (ip), vehicle: saline with Tween-80
[21] = dose: 200.0 mg/kg/injection, schedule: Q04DX003 (ip), vehicle: saline with Tween-80
[22] = dose: 400.0 mg/kg/injection, schedule: Q04DX003 (ip), vehicle: saline with Tween-80
[23] = dose: 100.0 mg/kg/injection, schedule: Q01DX009 (ip), vehicle: saline
[24] = dose: 200.0 mg/kg/injection, schedule: Q01DX009 (ip), vehicle: saline

Measured: T/C

CCCCNC(=O)Nc1cccc(C)c1C
inactive: [1] 101 % of control | [2] 95 % of control | [3] 94 % of control | [4] 93 % of control | [5] 93 % of control | [6] 97 % of control

COC(=O)C1CC2(C(=O)OC)CC(C(=O)OC)(CC(C(=O)OC)C2=O)C1=O (stereo not given)
inactive: dose: 50.0 mg/kg/injection, schedule: Q04DX002 (ip), vehicle: Klucel (hydroxypropylcellulose) (HPC) 93 % of control | [7] 102 % of control | [2] 95 % of control | [8] 108 % of control | [4] 89 % of control | [6] 92 % of control

O=c1cc(CCl)[nH]nc1CCl
inactive: dose: 6.0 mg/kg/injection, schedule: Q04DX003 (ip), vehicle: saline with Tween-80 110 % of control | dose: 9.5 mg/kg/injection, schedule: Q04DX003 (ip), vehicle: saline with Tween-80 110 % of control | dose: 14.5 mg/kg/injection, schedule: Q04DX003 (ip), vehicle: saline with Tween-80 117 % of control | dose: 22.0 mg/kg/injection, schedule: Q04DX003 (ip), vehicle: saline with Tween-80 115 % of control and 124 % of control | dose: 25.0 mg/kg/injection, schedule: Q04DX003 (ip), vehicle: saline with Tween-80 115 % of control | dose: 33.0 mg/kg/injection, schedule: Q04DX003 (ip), vehicle: saline with Tween-80 124 % of control | dose: 75.0 mg/kg/injection, schedule: Q04DX003 (ip), vehicle: saline with Tween-80 113 % of control | [9] 111 % of control

COC1=C(c2ccccc2)P(=O)(Cc2ccccc2)C(C)C1 (stereo not given)
inactive: [7] 108 % of control | [8] 96 % of control | [10] 93 % of control

COC1=C(Br)C(=O)C(Br)=C(OC)C1=O
inactive: dose: 100.0 mg/kg/injection, schedule: Q04DX002 (ip), vehicle: other 107 % of control | dose: 200.0 mg/kg/injection, schedule: Q04DX002 (ip), vehicle: other 96 % of control

Cc1cc(/C=C\[N+](=O)[O-])c(C)c2c1oc1ccccc12
inactive: [11] 88 % of control | [12] 96 % of control | dose: 400.0 mg/kg/injection, schedule: Q01DX001 (ip), vehicle: saline 88 % of control

C=C1C(=O)N(C)CCC1C(CC)C(=O)OC (stereo not given)
inactive: dose: 25.0 mg/kg/injection, schedule: Q01DX001 (ip), vehicle: saline 101 % of control | dose: 25.0 mg/kg/injection, schedule: Q04DX003 (ip), vehicle: saline 95 % of control | dose: 25.0 mg/kg/injection, schedule: Q04DX003 (oral), vehicle: saline 107 % of control | dose: 50.0 mg/kg/injection, schedule: Q01DX001 (ip), vehicle: saline 88 % of control | dose: 50.0 mg/kg/injection, schedule: Q04DX003 (ip), vehicle: saline 93 % of control | dose: 50.0 mg/kg/injection, schedule: Q04DX003 (oral), vehicle: saline 109 % of control | [11] 98 % of control | [13] 93 % of control | dose: 100.0 mg/kg/injection, schedule: Q04DX003 (oral), vehicle: saline 98 % of control | [12] 93 % of control | [14] 95 % of control | dose: 200.0 mg/kg/injection, schedule: Q04DX003 (oral), vehicle: saline 94 % of control

CC1CCCN(C(=O)Nc2ccccc2)C1 (stereo not given)
inactive: dose: 100.0 mg/kg/injection, schedule: Q04DX002 (ip), vehicle: saline 104 % of control | dose: 200.0 mg/kg/injection, schedule: Q04DX002 (ip), vehicle: saline 115 % of control | dose: 400.0 mg/kg/injection, schedule: Q04DX002 (ip), vehicle: saline 96 % of control

NNC(=O)c1nc(N)n[nH]1
inactive: [15] 98 % of control | [16] 95 % of control | [17] 109 % of control

CC1(C)OCC(C2OC(=O)C=C2OS(=O)(=O)O)O1 (stereo not given)
inactive: dose: 75.0 mg/kg/injection, schedule: Q01DX001 (ip), vehicle: saline 95 % of control

CN(C)c1ccc(/C=N/NC(=O)C(O)C(O)C(O)C(O)CO)c(Cl)c1 (stereo not given)
inactive: [18] 98 % of control | [19] 91 % of control | [20] 88 % of control

COC(=O)NNC(=O)OC
inactive: dose: 50.0 mg/kg/injection, schedule: Q01DX001 (ip), vehicle: carboxymethylcellulose (CMC) 89 % of control | dose: 100.0 mg/kg/injection, schedule: Q01DX001 (ip), vehicle: carboxymethylcellulose (CMC) 94 % of control | [1] 97 % of control | dose: 200.0 mg/kg/injection, schedule: Q01DX001 (ip), vehicle: carboxymethylcellulose (CMC) 97 % of control | [3] 100 % of control | dose: 400.0 mg/kg/injection, schedule: Q01DX001 (ip), vehicle: carboxymethylcellulose (CMC) 103 % of control | [5] 103 % of control

COc1cc(C=O)ccc1OCc1ccccc1
inactive: [15] 96 % of control and 93 % of control | [9] 110 % of control | [16] 96 % of control | [21] 94 % of control | [17] 98 % of control and 93 % of control | [22] 100 % of control

C[CH2][Ge]([CH2]C)([CH2]C)[CH2]CCO
inactive: dose: 5.0 mg/kg/injection, schedule: Q04DX002 (ip), vehicle: saline with Tween-80 103 % of control | dose: 10.0 mg/kg/injection, schedule: Q04DX002 (ip), vehicle: saline with Tween-80 97 % of control | dose: 20.0 mg/kg/injection, schedule: Q04DX002 (ip), vehicle: saline with Tween-80 95 % of control | [18] 93 % of control | [19] 93 % of control

O=S1(=O)CN2C=CC=CC2=N1
inactive: [18] 113 % of control | [19] 91 % of control | [20] 109 % of control

CCCC(C)c1cc([N+](=O)[O-])cc([N+](=O)[O-])c1O (stereo not given)
inactive: dose: 3.12 mg/kg/injection, schedule: Q01DX009 (ip), vehicle: saline with Tween-80 107 % of control | dose: 6.25 mg/kg/injection, schedule: Q01DX009 (ip), vehicle: saline with Tween-80 98 % of control | dose: 12.5 mg/kg/injection, schedule: Q01DX009 (ip), vehicle: saline with Tween-80 91 % of control

CC12CCCCC1(O)CC(=O)CC2 (stereo not given)
inactive: [7] 101 % of control | [8] 99 % of control | [10] 108 % of control

CC(C)NNC(=O)C(N)CO (stereo not given)
inactive: dose: 25.0 mg/kg/injection, schedule: Q01DX009 (ip), vehicle: saline 91 % of control | dose: 50.0 mg/kg/injection, schedule: Q01DX009 (ip), vehicle: saline 97 % of control | [23] 105 % of control | [24] 97 % of control | dose: 400.0 mg/kg/injection, schedule: Q01DX009 (ip), vehicle: saline 107 % of control

CCCCOC(=O)NC/C(Br)=C/Br
inactive: [1] 96 % of control | [2] 100 % of control | [3] 94 % of control | [4] 96 % of control | [5] 91 % of control | [6] 105 % of control

O=C1CN(Br)C(=O)N1Br
inactive: [23] 105 % of control | [13] 98 % of control | [24] 107 % of control | [14] 105 % of control | dose: 400.0 mg/kg/injection, schedule: Q04DX003 (ip), vehicle: saline 100 % of control

CCCCCC(=O)N1CCCCC1
inactive: dose: 25.0 mg/kg/injection, schedule: Q01DX009 (ip), vehicle: Klucel (hydroxypropylcellulose) (HPC) 93 % of control | dose: 50.0 mg/kg/injection, schedule: Q01DX009 (ip), vehicle: Klucel (hydroxypropylcellulose) (HPC) 96 % of control | [1] 94 % of control

NCC(=O)NC(Cc1c[nH]c2ccccc12)C(=O)O (stereo not given)
inactive: dose: 100.0 mg/kg/injection, schedule: Q01DX001 (ip), vehicle: acetone 97 % of control | dose: 200.0 mg/kg/injection, schedule: Q01DX001 (ip), vehicle: acetone 98 % of control | dose: 400.0 mg/kg/injection, schedule: Q01DX001 (ip), vehicle: acetone 92 % of control

O=C1c2ccccc2C(=O)N1CCCn1c2ccccc2c2cnccc21
inactive: [15] 101 % of control | [9] 103 % of control | [16] 104 % of control | [21] 95 % of control | [17] 104 % of control | [22] 92 % of control
